According to US9839647B2, “Equol concentration increasing agent containing psicose as active ingredient” (CJ CHEILJEDANG CORPORATION, priority 2011, dated 2017):

Key:
[1] = tested on: intestinal bacteria capable of producing equol; settings: saccharide no add = 100.0; cited from earlier work
[2] = tested on: equol producing microorganism population; assay: Change in produced equol amount in the presence of carbohydrate (TLC image analysis); type: cell-based, human; settings: for Variation (produced equol amount relative to culture solution containing xylose and daidzein): 1% carbohydrate, 0.1 mM daidzein, three days, xylose = 100, average of image analysis for two coloring methods
Description: The activity for regulating equol concentration by psicose was calculated as follows. To a microorganism population stock having capability to produce equol (obtained by centrifuging and washing feces taken from equol producers, KR Patent Registration No. 2008-0072635), daidzein as a substrate for equol, and psicose were added, followed by culturing and measuring the equol concentration in a culture solution. The measured equol concentration was inserted together with equol concentration in a culture solution containing daidzein and xylose into Equation for calculating equol variation percentage below: Equol variation percentage (%)=(Equol concentration in the culture solution containing psicose and daidzein)/(Equol concentration in the culture solution containing xylose and daidzein)×100
GAM (Gifu anaerobic medium) medium (4 ml) was inoculated with equol producing microorganism population stock stored in liquid nitrogen (obtained by centrifuging and washing feces taken from equol producers, KR Patent Registration No. 2008-0072635), followed by cultivating for 3-4 hours to activate.
When OD (optical density) approached 1.5, 200 μl of medium was taken and transferred to an Eppendorf tube. To the Eppendorf tube, 0.1 mM of daidzein was added, followed by vortexing to initiate reaction.
In order to measure equol production over time, 50 μl of medium was sampled 1, 2 and 3 days after the inoculation.
To the medium, 1 ml of ethyl acetate was added to extract isoflavonoids. Extraction was performed as follows: after vortexing and centrifugation, 800 μl of ethyl acetate was taken from the medium, followed by removal of the solvent through vacuum drying. Then, the resultant was dissolved in 10 μl of methanol. 2 μl was used to perform TLC.
Equol producing microorganism population was inoculated and the product was extracted in the same manner as in Example 1 except that, before the substrate was inoculated with the activated microorganism population, the final concentration of carbohydrate was adjusted to 1% by adding 2 mg each of xylose, tagatose, psicose, sucrose, fructo-oligosaccharide, and glucose. Further, only daidzein was used as the substrate. Unlike the case where pure daidzein was used, the reaction rate of producing equol was changed when carbohydrates were added. Namely, the production of equol occurred more slowly for a long period of time.
In order to compare variation in the produced equol amount in the product, quantitative analysis of TLC results was performed using an image analyzer.
Assuming the produced equol amount in the culture solution containing xylose and daidzein to be 100, the produced equol amount after addition of each carbohydrate for three days was compared. The comparison results are as follows.

Row | Compound | Activity to regulate equol concentration [1] [%] | Variation (produced equol amount relative to culture solution containing xylose and daidzein) [2] [%] | equol production ([2]; reaction condition for three days)
1 | O[C@H]1[C@H](O)[C@@H](O)[C@H](O)[C@@H](O)[C@H]1O [Inositol, inositol] | 416.2 | – | –
2 | OC[C@H]1O[C@H](OCC2O[C@@H](O)[C@H](O)[C@@H](O)[C@@H]2O)[C@H](O)[C@@H](O)[C@H]1O (some centres unmarked) [Melibiose] | 24.8 | – | –
3 | O=C[C@H](O)[C@@H](O)[C@@H](O)[C@H](O)CO [Galactose, galactose] | 240.1 | – | –
4 | OC[C@H]1O[C@H](O[C@H]2O[C@H](CO)[C@@H](O)[C@H](O)[C@H]2O)[C@H](O)[C@@H](O)[C@@H]1O [Trehalose, trehalose] | 403.5 | – | –
5 | OC[C@@H](O)[C@@H](O[C@@H]1O[C@H](CO)[C@H](O)[C@H](O)[C@H]1O)[C@H](O)[C@@H](O)CO [Lactitol, lactitol] | 459.1 | – | –
6 | Inulin | 0.0 | – | –
7 | O=C[C@H](O)[C@@H](O)[C@H](O[C@@H]1O[C@H](CO)[C@@H](O)[C@H](O)[C@H]1O)[C@H](O)CO [Cellobiose] | 160.6 | – | –
8 | O=C[C@H](O)[C@H](O)[C@H](O)CO [Ribose, ribose] | 329.6 | – | –
9 | O=C[C@@H](O)[C@H](O)[C@H](O)CO [Arabinose, arabinose] | 391.1 | – | –
10 | O=C(CO)[C@H](O)[C@H](O)[C@H](O)CO [Psicose, D-psicose] | – | 139 | significantly promoted equol production
11 | OC[C@@H](O)[C@@H](O)[C@H](O)[C@@H](O)CO [Sorbiol] | 372.5 | – | –
12 | OC[C@H]1O[C@@](CO)(O[C@H]2O[C@H](CO)[C@@H](O)[C@H](O)[C@H]2O)[C@@H](O[C@H]2O[C@H](CO)[C@@H](O)[C@H](O)[C@H]2O)[C@@H]1O [Melezitose, melezitose] | 411.6 | – | –
13 | OC[C@@H](O)[C@@H](O)[C@H](O)[C@H](O)CO [Mannitol] | 182.2 | – | –
14 | OC[C@H]1O[C@@H](O[C@@H]2[C@@H](CO)OC(O)(CO)[C@H]2O)[C@H](O)[C@@H](O)[C@H]1O (mixture of isomers) [Lactulose] | 8.1 | – | –
15 | OC[C@H]1O[C@@](CO)(O[C@H]2O[C@H](CO)[C@@H](O)[C@H](O)[C@H]2O)[C@@H](O)[C@@H]1O [Sucrose, sucrose] | 0.0 | 54 | –
16 | OC[C@@H](O)[C@@H](O)[C@@H](O)CO [Adonitol, adonitol] | 260.0 | – | –
17 | OC[C@@H](O)[C@@H](O)CO [Erythritol, erythritol] | 214.2 | – | –
18 | OC[C@H]1O[C@H](OC[C@H]2O[C@H](O[C@]3(CO)O[C@H](CO)[C@@H](O)[C@@H]3O)[C@H](O)[C@@H](O)[C@@H]2O)[C@H](O)[C@@H](O)[C@H]1O [Raffinose] | 0.0 | – | –
19 | O=C(CO)[C@H](O)[C@@H](O)[C@H](O)CO [Sorbose, sorbose] | 467.7 | – | –
20 | O=C(CO)[C@@H](O)[C@@H](O)[C@H](O)CO [Tagatose, tagatose] | – | 54 | –
21 | OC[C@H]1O[C@@H](O[C@H]2[C@H](O)[C@@H](O)C(O)O[C@@H]2CO)[C@H](O)[C@@H](O)[C@H]1O (some centres unmarked) [Lactose] | 0.0 | – | –
22 | O=C(CO)[C@@H](O)[C@H](O)[C@H](O)CO [Fructose] | 51.5 | – | –
23 | OC[C@H]1O[C@H](O[C@H]2[C@H](O)[C@@H](O)[C@H](O)O[C@@H]2CO)[C@H](O)[C@@H](O)[C@@H]1O [Maltose] | 58.5 | – | –
24 | C[C@H](O)[C@H](O)[C@@H](O)[C@@H](O)C=O [Rhamnose] | 116.4 | – | –
25 | O=C[C@H](O)[C@@H](O)[C@H](O)CO [Xylose, xylose] | 442.6 | 100 | –
26 | Glycogen | 184.8 | – | –
